{
  "source": "patent US12083093B2",
  "about": "“Composition for preventing or treating cellular senescence-related diseases comprising salinomycin as effective component” (RESEARCH COOPERATION FOUNDATION OF YEUNGNAM UNIVERSITY, priority 2018, dated 2024)",
  "key": {"[1]": {"tested_on": "premature senescent retinal pigmented epithelial cells (ARPE) by doxorubicin", "experiment": "CCK-8 cell survival, doxorubicin-induced premature senescent retinal pigmented epithelial cells", "type": "cell-based, human", "details": "100 nM, 4 days; compared to DMSO-treated group; FIG. 5A, 5B", "procedure": "(§1) Each cell was treated in a serum-free culture solution containing doxorubicin (0.5 μM) for 4 hours. After washing the cells with a serum-free culture solution, the cells were cultured for 4 days in a culture solution containing 10% FBS, and then cellular aging was confirmed by measuring the level of senescence by staining with senescence-associated beta galactosidase.\n(§2) After each sample was dissolved in DMSO, young cells, replicative senescent cells and senescent cells in which premature aging was induced by treating with doxorubicin were treated with 100 nM salinomycin, 100 nM rapamycin, 100 nM ABT263. After incubation for 4 days in a 37° C., 5% CO2 incubator, the degree of cell survival was confirmed by CCK-8 analysis, the degree of cellular aging was confirmed by senescence-associated β-galactosidase (SAβG) staining, p53 and p16 protein expression analysis.\n(§3) Young cells (1×10^3 cells/well) or senescent cells (2×10^3 cells/well) were dispensed into a 96-well plate, and cultured overnight in a 37° C., 5% CO2 incubator. Salinomycin, ABT263 and rapamycin were treated at each concentration, and then incubated for 4 days in a 37° C., 5% CO2 incubator. […] Then, the absorbance was measured at 450 nm using a Microplate reader.\n(§4) The degree of cell survival was expressed as a relative value for the absorbance of the control group treated with only DMSO as 100%. […]"}, "[2]": {"tested_on": "replicative senescent human fibroblasts (HDF)", "experiment": "Western blot of p53 and p16, replicative senescent human fibroblasts", "type": "cell-based", "details": "FIG. 2C", "procedure": "(§5) After dispensing 2×10^5 cells in a 100 mm culture dish, they were cultured in a 37° C., 5% CO2 incubator. When the cells grew to 80-90% in the culture dish, the cells were removed by treatment with trypsin-EDTA, and the number of cells was measured, and the cell population doubling time (PDT) was measured.\n(§6) By successively subculturing the cells in the same process as described above, replication aging was induced. PDT of young fibroblasts was 36 hours, PDT of replicative senescent fibroblasts was 12 days, PDT of young vascular endothelial cells was 24 hours, and PDT of replicative senescent vascular endothelial cells was 7 days.\nAfter dispensing the cells into a 60 mm culture dish, the cells were cultured overnight in an incubator at 37° C. and 5% CO2. After treatment with salinomycin, ABT263 and rapamycin, it was incubated for 3 days in a 37° C., 5% CO2 incubator. […]\nThe lysed cells were transferred to a 1.5 ml tube, pipetted 3-4 times, and then left on ice for 20 minutes. After centrifugation at 12,000 rpm for 20 minutes to recover the supernatant, the protein concentration of the supernatant was quantified by BCA analysis. […]"}, "[3]": {"tested_on": "replicative senescent human fibroblasts (HDF)", "experiment": "CCK-8 cell survival, replicative senescent human fibroblasts", "type": "cell-based", "details": "replicative senescent cells, increasing concentration of salinomycin; FIG. 2A, 2D", "procedure": "as §5, §6\nAfter each sample was dissolved in DMSO, young cells, replicative senescent cells and senescent cells in which premature aging was induced by treating with doxorubicin were treated with 100 nM salinomycin, 100 nM rapamycin, 100 nM ABT263. […]\nYoung cells (1×10^3 cells/well) or senescent cells (2×10^3 cells/well) were dispensed into a 96-well plate, and cultured overnight in a 37° C., 5% CO2 incubator. […] Then, the absorbance was measured at 450 nm using a Microplate reader.\nThe degree of cell survival was expressed as a relative value for the absorbance of the control group treated with only DMSO as 100%."}, "[4]": {"tested_on": "premature senescent retinal pigmented epithelial cells (ARPE) by doxorubicin", "type": "cell-based, human", "procedure": "as §1\nCytotoxicity against young and senescent cells was investigated with a lactate dehydrogenase (LDH) activity kit (Dojindo Molecular Technologies Inc.). Young cells (1×10^3 cells/100 μl/well) or senescent cells (2×10^3 cells/100 μl/well) were dispensed into a 96-well plate, and then cultured overnight in a 37° C., 5% CO2 incubator.\nSalinomycin, ABT263 and rapamycin were treated at each concentration, and then incubated for 4 days in a 37° C., 5% CO2 incubator. After transferring the cell culture solution to a 1.5 ml tube, it was centrifuged at 4° C. and 12,000 rpm. 100 μl of the supernatant was dispensed into a 96-well plate, and 100 μl of the LDH measurement solution was added to each well, followed by reaction in a CO2 incubator for 30 minutes. 50 μl of the LDH reaction stop solution was added, and absorbance was measured at 490 nm using a microplate reader. The level of LDH activity was expressed as a relative value based on the absorbance of the control group treated with only DMSO."}, "[5]": {"tested_on": "premature senescent renal tubular cells (HK2) by doxorubicin", "experiment": "CCK-8 cell survival, doxorubicin-induced premature senescent HK2 cells", "type": "cell-based, human", "details": "100 nM, 4 days; compared to DMSO-treated group; FIG. 6A-6C", "procedure": "as §1, §2, §3, §4"}},
  "data": [
    {"smiles": "CC[C@@H](C(=O)[C@@H](C)[C@@H](O)[C@H](C)[C@@H]1O[C@@H]([C@@H](CC)C(=O)O)CC[C@@H]1C)[C@H]1O[C@]2(C=C[C@@H](O)[C@]3(CC[C@@](C)([C@H]4CC[C@](O)(CC)[C@H](C)O4)O3)O2)[C@H](C)C[C@@H]1C", "note": "[salinomycin]", "values": [
      {"measurement": "cell survival (CCK-8)", "setting": "[1]", "value": "significantly (p<0.01) reduced"},
      {"measurement": "expression of p16 protein (Western blot)", "setting": "[2]", "value": "reduced"},
      {"measurement": "expression of p53 protein (Western blot)", "setting": "[2]", "value": "reduced"},
      {"measurement": "cell survival (CCK-8)", "setting": "[3]", "value": "no change"},
      {"measurement": "cytotoxicity by LDH activity", "setting": "[4]", "value": "significantly increased"},
      {"measurement": "survival (CCK-8)", "setting": "[5]", "value": "no change"}
    ]}
  ]
}
